Patent publication US10765684B2, “Reduction of side effects from aromatase inhibitors used for treating breast cancer” (HAVAH THERAPEUTICS PTY LTD, priority 2005, dated 2020)

Columns and labels:
post-menopausal patients [1] = conditions: in vivo
Description: The Western Ontario and McMaster Universities (WOMAC) Osteoarthritis Index™ consists of three VAS, one each pertaining to pain, joint stiffness and physical function. This then gives the WOMAC™ osteoarthritis index composite score.
Five post-menopausal women having similar patient socio-demographic characteristics and ranging in age from 49 years to 56 years (median age 54) were selected for study. […]
(§1) Each woman selected was subjected to four weeks of aromatase inhibitor therapy (anastrozole 1 mg (ARIMIDEX®) orally as a tablet once a day), and thereafter to an additional eight weeks of the same aromatase inhibitor therapy in combination with the oral administration of 40 mg of testosterone undecanoate as a tablet once a day. During this study, side effects associated with aromatase inhibitor treatment were measured at three separate times: prior to the first week of aromatase inhibitor therapy, following the fourth week of aromatase inhibitor therapy but before administration of testosterone undecanoate was begun, and following the eighth week of combined aromatase inhibitor and androgen replacement therapy.
The y axis is a visual analogue pain scale. Specifically, the y axis indicates a percentage score of a subjective quantification of pain measured out of 100.

post-menopausal patients [2] = conditions: in vivo; remark: listed apart in the source
Description: Another embodiment of this invention involves measuring cognitive function, including processing speed, working memory, visual memory, and verbal memory.
Five post-menopausal women having similar patient socio-demographic characteristics and ranging in age from 49 years to 56 years (median age 54) were selected for study. Each woman had been diagnosed with node-negative estrogen receptor and PR (Progesterone Receptor) positive BCa (Breast cancer), with tumor sizes ranging from 1.9 cm to 2.3 cm (median tumor size of 2.1 cm) and selected post-surgery (e.g., mastectomy, lumpectomy, or quadrantectomy for primary breast cancer) and post-chemotherapy. […]
Each woman selected was subjected to four weeks of aromatase inhibitor therapy (anastrozole 1 mg (ARIMIDEX®) orally as a tablet once a day), and thereafter to an additional eight weeks of the same aromatase inhibitor therapy in combination with the oral administration of 40 mg of testosterone undecanoate as a tablet once a day. During this study, side effects associated with aromatase inhibitor treatment were measured at three separate times: prior to the first week of aromatase inhibitor therapy, following the fourth week of aromatase inhibitor therapy but before administration of testosterone undecanoate was begun, and following the eighth week of combined aromatase inhibitor and androgen replacement therapy. […]

post-menopausal patients [3] = system: post-menopausal patients; set-up: species or system post-menopausal women; conditions: in vivo
Description: An endocrine subscale (FACT-ES) to accompany a well-validated QOL measure called the FACT-B (Brady, M J., et al., Journal of Clinical. Oncology., Vol. 15, No. 3 (March 1997) pp. 974-986, which is incorporated in its entirety) was developed specifically for use in trials using drugs likely to cause endocrine related symptoms. See Fallowfield, L J, et al., Breast Cancer Research and Treatment, Vol. 55, No. 2, 1999, pp. 189-199, which is incorporated herein by reference in its entirety. Also, FACT-ES is a validated questionnaire designed to measure quality of life of women with breast cancer who are being treated with endocrine therapies. It consists of the FACT-B questionnaire plus an additional endocrine subscale. FACT-B (breast) consists of the FACT-G (general) QOL tool for cancer patients plus the Breast Cancer subscale. FACT-ES has been developed to measure QOL in patients receiving endocrine therapy for breast cancer. This instrument (FACT-ES) should, therefore, be sensitive to QOL changes in patients in this trial. […]
At the three assessment times during the study, the quality of life for each patient was assessed using standard Functional Assessment of Cancer Therapy-Endocrine Symptoms (FACT-ES) questionnaire (See FIG. 8), which questionnaire is a standard method for determining the occurrence and prominence of treatment-related symptoms and side-effects in breast cancer patients. […]

[4] = serum hormone levels in post-menopausal breast cancer patients; assay type: in vivo, post-menopausal women; conditions: versus pre-therapy, FIG. 2
Description: Five post-menopausal women having similar patient socio-demographic characteristics and ranging in age from 49 years to 56 years (median age 54) were selected for study. Each woman had been diagnosed with node-negative estrogen receptor and PR (Progesterone Receptor) positive BCa (Breast cancer), with tumor sizes ranging from 1.9 cm to 2.3 cm (median tumor size of 2.1 cm) and selected post-surgery (e.g., mastectomy, lumpectomy, or quadrantectomy for primary breast cancer) and post-chemotherapy. None had been subjected to previous attempts at hormone replacement therapy.
as §1
The y axis is picomoles/L of serum.

[5] = cited from earlier work
[6] = cited from earlier work; remark: listed apart in the source

In the case of `CC(C)(C#N)c1cc(Cn2cncn2)cc(C(C)(C)C#N)c1` [Al only, anastrozole], the reported arthralgia symptoms (post-menopausal patients [1]) is reported as “elevated levels of arthralgia”, the “cognitive function scores (processing speed, working memory, visual memory, verbal memory; mean Z score)” value (post-menopausal patients [2]) is reported as “decreased across all four ability types” and the “quality of life as measured by FACT-ES questionnaires” value (post-menopausal patients [3]) is reported as “decreased”. For the same compound, the “average estradiol (E2) serum level” value ([4]; following the fourth week of aromatase inhibitor therapy (anastrozole 1 mg once a day)) was “drops significantly” and the “remainder of the serum hormone levels (T, FreeT, DHT)” value ([4]; following the fourth week of aromatase inhibitor therapy) was “relatively unchanged”.
For `CCC1(c2ccc(N)cc2)CCC(=O)NC1=O` (stereo not shown) [aminoglutethimide], the tolerability ([5]; Cash, Brough et al 1967) is given as “poorly tolerated” and the adrenal suppression ([5]; limited the use of the drug) is given as “marked adrenal suppression”.
In the case of `CCCCCCCCCCC(=O)O[C@H]1CC[C@H]2[C@@H]3CCC4=CC(=O)CC[C@]4(C)[C@H]3CC[C@]12C` [testosterone undecanoate], the oral bioavailability ([6]; by-passes the liver via the lymphatic system) is given as “orally bioavailable”.
For `C[C@]12CC[C@H]3[C@@H](CCC4=CC(=O)CC[C@@]43C)[C@@H]1CC[C@@H]2O` [testosterone], the “testosterone broken down in the liver as it is absorbed from the gut” value ([6]; oral delivery) is given as 80-90% and the “testosterone broken down in the intestines by aromatase and other metabolic pathways” value ([6]; oral) is given as “approximately 85%”.
